Measurements published in patent US11242351B2, “Tricyclic inhibitors of the BCL6 BTB domain protein-protein interaction and uses thereof” (priority 2017, dated 2022).
Where two headings read alike, the source gives them in different places.

What was measured:
[1] = target: BCL6 BTB domain (biotin-thrombin-BCL6 amino acids 1-129) (Homo sapiens (Human), UniProt P41182); experiment: Surface Plasmon Resonance (SPR) assay; assay type: binding; details: Biacore T200, single cycle kinetic analysis
Protocol: Surface Plasmon Resonance (SPR) Assay
SPR studies were performed using a Biacore™ T200 instrument (GE Health Sciences Inc.). […] The Biacore flow rate was set at 100 μl/min. […] Curve fitting and KD calculations were performed with the Biacore T200 Evaluation software (GE Health Sciences Inc).

[2] = tested on: BCL6 reporter construct in SuDHL4-3×BCL6-TK-Luc cells; experiment: Cell-based luciferase assay (BCL6 reporter); details: 48 h, read-out: Luc IC50
Procedure, shortened: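 SuDHL4 cells stably carrying a 3×BCL6-site TK-promoter firefly luciferase reporter, 15,000 cells/well, dosed over 10 concentrations (top 10 μM) and cultured two days at 37° C, 5% CO2. Luciferase luminescence read after room-temperature equilibration with neolite reagent.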

Karpas422 cells = experiment: Tumor cell growth inhibition assay; assay type: cell-based; details: Homo sapiens, KARPAS-422, 144 h, read-out: GI Karpas EC50
Procedure, shortened: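 Karpas422 cells were dosed over a 10-point concentration range (top 5 μM) and grown 6 days at 37 °C, 5% CO2, in Alpha-MEM with 10% FBS. Viability was read as ATPlite luminescence.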

[3] = SuDHL4-3×BCL6-TK-Luc cells, two days
[4] = Karpas422 cells, six days, ATPlite

SMILES | Kd [1] [nM] | IC50 [2, 3] [nM] | EC50 (Karpas422 cells; [4]) [nM] | IC50 [2] [nM] | EC50 (Karpas422 cells) [nM]
CC1Cc2nc3c(c(-c4cc(Cl)c(O)c(C(N)=O)c4)cn3CC(=O)Nc3cc(N4CCOC[C@@H]4C)nc(F)c3Cl)c(=O)n2C1 (stereo partly drawn) [I-66, 3-chloro-5-(1-(2-((3-chloro-2-fluoro-6-((S)-3-methylmor-pholino)pyridin-4-yl)amino)-2-oxo-ethyl)-7-methyl-4-oxo-4,6,7,8-tetra-hydro-1H-dipyrrolo [1,2-a:2′,3′-d]pyrimi-din-3-yl)-2-hydroxy-benzamide] | 15.9 | 186 | 74.2 | – | –
C[C@H]1CN(C)CCN1c1cc(NC(=O)Cn2cc(-c3cc(C#N)c(O)c4c3OCO4)c3c(=O)n4c(nc32)CCC4)c(Cl)c(F)n1 [I-67, (S)-N-(3-chloro-6-(2,4-dimethyl-piperazin-1-yl)-2-fluoropyridin-4-yl)-2-(3-(6-cyano-7-hydroxybenzo[d][1,3]dioxol-4-yl)-4-oxo-4,6,7,8-tetrahydro-1H-dipyrrolo[1,2-a:2′,3′-d]pyrimidin-1-yl) acetamide] | 6.72 | – | – | 541 | 874
COc1c(-c2cn(CC(=O)Nc3cc(N4CCN(C)C[C@@H]4C)nc(F)c3Cl)c3nc4n(c(=O)c23)CCC4)cc(C(N)=O)c(O)c1OC [I-68, (S)-5-(1-(2-((3-chloro-6-(2,4-dimethylpiperazin-1-yl)-2-fluoro-pyridin-4-yl)amino)-2-oxoethyl)-4-oxo-4,6,7,8-tetrahydro-1H-dipyrrolo[1,2-a:2′,3′-d]pyrimidin-3-yl)-2-hydroxy-3,4-dimethoxy-benzamide] | 31.3 | – | – | 3420 | 1620
COc1c(-c2cn(CC(=O)Nc3cc(N4CCOC[C@@H]4C)ncc3Cl)c3nc4n(c(=O)c23)CCC4)cc(C(N)=O)c(O)c1OC [I-69, (S)-5-(1-(2-((5-chloro-2-(3-methylmorpholino)pyridin-4-yl)amino)-2-oxoethyl)-4-oxo-4,6,7,8-tetrahydro-1H-dipyrrolo[1,2-a:2′,3′-d]pyrimidin-3-yl)-2-hydroxy-3,4-dimethoxy-benzamide] | 294 | 7970 | 10000 | – | –
COc1c(-c2cn(CC(=O)Nc3cc(N4CCOC[C@@H]4C)nc(F)c3Cl)c3nc4n(c(=O)c23)CCC4)cc(C(N)=O)c(O)c1OC [I-70, (S)-5-(1-(2-((3-chloro-2-fluoro-6-(3-methyl-morpholino)pyridin-4-yl)amino)-2-oxoethyl)-4-oxo-4,6,7,8-tetra-hydro-1H-dipyrrolo [1,2-a:2′,3′-d]pyrimi-din-3-yl)-2-hydroxy-3,4-dimethoxy-benzamide] | 255 | – | – | 3820 | 4070
CCOCCN1CCN(c2cc(NC(=O)Cn3cc(-c4cc(C(N)=O)c(O)c(OC)c4OC)c4c(=O)n5c(nc43)CCC5)c(Cl)c(F)n2)[C@@H](C)C1 [I-71, (S)-5-(1-(2-((3-chloro-6-(4-(2-ethoxyethyl)-2-methylpiperazin-1-yl)-2-fluoropyridin-4-yl)amino)-2-oxo-ethyl)-4-oxo-4,6,7,8-tetrahydro-1H-dipyrrolo [1,2-a:2′,3′-d]pyrimidin-3-yl)-2-hydroxy-3,4-dimethoxybenzamide] | 181 | 1640 | 1370 | – | –
COc1c(-c2cn(CC(=O)Nc3cc(N4CCN(C5COC5)C[C@@H]4C)nc(F)c3Cl)c3nc4n(c(=O)c23)CCC4)cc(C(N)=O)c(O)c1OC [I-72, (S)-5-(1-(2-((3-chloro-2-fluoro-6-(2-methyl-4-(oxetan-3-yl)pipera-zin-1-yl)pyridin-4-yl)amino)-2-oxoethyl)-4-oxo-4,6,7,8-tetra-hydro-1H-dipyrrolo [1,2-a:2′,3′-d]pyrimi-din-3-yl)-2-hydroxy-3,4-dimethoxy-benzamide] | 85.1 | – | – | 1560 | 429
C[C@H]1CN(C)C[C@H](C)N1c1cc(NC(=O)Cn2cc(-c3cc(C(N)=O)c(O)c(F)c3F)c3c(=O)n4c(nc32)CCC4)c(Cl)c(F)n1 [I-73, 5-(1-(2-((3-chloro-2-fluoro-6-((2S,6S)-2,4,6-trimethyl-piperazin-1-yl)pyridin-4-yl)amino)-2-oxo-ethyl)-4-oxo-4,6,7,8-tetrahydro-1H-dipyrrolo [1,2-a:2′,3′-d]pyrimidin-3-yl)-3,4-difluoro-2-hydroxybenzamide] | 58.6 | – | – | 1050 | 648
NC(=O)c1cc(-c2cn(CC(=O)Nc3cc(N4CCCC4)nc(F)c3Cl)c3nc4n(c(=O)c23)CCC4)cc(Cl)c1O [I-74, 3-chloro-5-(1-(2-((3-chloro-2-fluoro-6-(pyrrolidin-1-yl)pyridin-4-yl)amino)-2-oxo-ethyl)-4-oxo-4,6,7,8-tetrahydro-1H-dipyrrolo [1,2-a:2′,3′-d]pyrimidin-3-yl)-2-hydroxy-benzamide] | 14.8 | 148 | 210 | – | –
COCCN1CCN(c2cc(NC(=O)Cn3cc(-c4cc(Cl)c(O)c(C(N)=O)c4)c4c(=O)n5c(nc43)CCC5)c(Cl)c(F)n2)[C@@H](C)C1 [I-75, (S)-3-chloro-5-(1-(2-((3-chloro-2-fluoro-6-(4-(2-methoxyethyl)-2-methylpiperazin-1-yl)pyridin-4-yl)amino)-2-oxoethyl)-4-oxo-4,6,7,8-tetra-hydro-1H-dipyrrolo [1,2-a:2′,3′-d]pyrimi-din-3-yl)-2-hydroxy-benzamide] | 3.7 | 36.7 | 48.9 | – | –
NC(=O)c1cc(-c2cn(CC(=O)Nc3cc(N4CCCC4)nc(F)c3Cl)c3nc4n(c(=O)c23)CCC4)cc(F)c1O [I-76, 5-(1-(2-((3-chloro-2-fluoro-6-(pyrrolidin-1-yl)pyridin-4-yl)amino)-2-oxoethyl)-4-oxo-4,6,7,8-tetrahydro-1H-dipyrrolo[1,2-a:2′,3′-d]pyrimidin-3-yl)-3-fluoro-2-hydroxy-benzamide] | 3.02 | 85.1 | 92.8 | – | –
COCCN1CCN(c2cc(NC(=O)Cn3cc(-c4cc(F)c(O)c(C(N)=O)c4)c4c(=O)n5c(nc43)CCC5)c(Cl)c(F)n2)[C@@H](C)C1 [I-77, (S)-5-(1-(2-((3-chloro-2-fluoro-6-(4-(2-methoxyethyl)-2-methylpiperazin-1-yl)pyridin-4-yl)amino)-2-oxoethyl)-4-oxo-4,6,7,8-tetrahydro-1H-dipyrrolo[1,2-a:2′,3′-d]pyrimidin-3-yl)-3-fluoro-2-hydroxy-benzamide] | 1.42 | 27.4 | 20.7 | – | –
CC1Cc2nc3c(c(-c4cc(F)c(O)c(C(N)=O)c4)cn3CC(=O)Nc3cc(N4CCN(C)C[C@@H]4C)nc(F)c3Cl)c(=O)n2C1 (stereo partly drawn) [I-78, 5-(1-(2-((3-chloro-6-((S)-2,4-dimethyl-piperazin-1-yl)-2-fluoropyridin-4-yl)amino)-2-oxoethyl)-7-methyl-4-oxo-4,6,7,8-tetrahydro-1H-dipyrrolo[1,2-a:2′,3′-d]pyrimidin-3-yl)-3-fluoro-2-hydroxy-benzamide] | 2.03 | 30.7 | 21 | – | –
C[C@H]1CN(C)CCN1c1cc(NC(=O)Cn2cc(-c3cc(F)c(O)c(C(N)=O)c3)c3c(=O)n4c(nc32)CC(C)(C)C4)c(Cl)c(F)n1 [I-79, (S)-5-(1-(2-((3-chloro-6-(2,4-dimethyl-piperazin-1-yl)-2-fluoropyridin-4-yl)amino)-2-oxoethyl)-7,7-dimethyl-4-oxo-4,6,7,8-tetrahydro-1H-dipyrrolo[1,2-a:2′,3′-d]pyrimidin-3-yl)-3-fluoro-2-hydroxy-benzamide] | 2.79 | 35.2 | 39.8 | – | –
CN(C)c1cc(NC(=O)Cn2cc(-c3cc(F)c(O)c(C(N)=O)c3)c3c(=O)n4c(nc32)CCC4)c(Cl)c(F)n1 [I-80, 5-(1-(2-((3-chloro-6-(dimethylamino)-2-fluoropyridin-4-yl)amino)-2-oxoethyl)-4-oxo-4,6,7,8-tetrahydro-1H-dipyrrolo[1,2-a:2′,3′-d]pyrimidin-3-yl)-3-fluoro-2-hydroxy-benzamide] | 3.83 | 87.2 | 70.1 | – | –
CCN1CCN(c2cc(NC(=O)Cn3cc(-c4cc(F)c(O)c(C(N)=O)c4)c4c(=O)n5c(nc43)CCC5)c(Cl)c(F)n2)[C@@H](C)C1 [I-81, (S)-5-(1-(2-((3-chloro-6-(4-ethyl-2-methyl-piperazin-1-yl)-2-fluoropyridin-4-yl)amino)-2-oxoethyl)-4-oxo-4,6,7,8-tetrahydro-1H-dipyrrolo[1,2-a:2′,3′-d]pyrimidin-3-yl)-3-fluoro-2-hydroxy-benzamide] | 1.55 | 28.3 | 31.3 | – | –
CCN1CCN(c2cc(NC(=O)Cn3cc(-c4cc(Cl)c(O)c(C(N)=O)c4)c4c(=O)n5c(nc43)CCC5)c(Cl)c(F)n2)[C@@H](C)C1 [I-82, (S)-3-chloro-5-(1-(2-((3-chloro-6-(4-ethyl-2-methylpiperazin-1-yl)-2-fluoropyridin-4-yl)amino)-2-oxoethyl)-4-oxo-4,6,7,8-tetra-hydro-1H-dipyrrolo [1,2-a:2′,3′-d]pyrimi-din-3-yl)-2-hydroxy-benzamide] | 4.13 | 63.1 | 27.8 | – | –
C[C@H]1CN(C)C[C@H](C)N1c1cc(NC(=O)Cn2cc(-c3cc(F)c(O)c(C(N)=O)c3)c3c(=O)n4c(nc32)CCC4)c(Cl)c(F)n1 [I-83, 5-(1-(2-((3-chloro-2-fluoro-6-((2S,6S)-2,4,6-trimethylpiperazin-1-yl)pyridin-4-yl)amino)-2-oxoethyl)-4-oxo-4,6,7,8-tetrahydro-1H-dipyrrolo[1,2-a:2′,3′-d]pyrimidin-3-yl)-3-fluoro-2-hydroxy-benzamide] | 11.2 | 465 | 109 | – | –
